What all share (assay): NCI-60 cell line screen, 48 h
Assay [1] concerns HOP-62 NSCLC.
Assay [2] concerns OVCAR-5 ovarian.
The subject of assay [3] is MDA-MB-435.
Assay [4] relates to SK-MEL-28 melanoma.
The test system of assay [5] is MOLT-4 leukemia.
The test system of assay [6] is NCI-H522 lung.
The test system of assay [7] is MDA-MB-231 breast.
Assay [8] relates to PC-3 prostate.
In assay [9] the test system is OVCAR-3 ovarian.
Assay [10] relates to 786-0 renal.

“And” between values parts separate entries of the source, which are not always exact repeats. Identical values can stand only once.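 Protocol summary: plate cells (96-well), add compound at 5 concentrations, incubate 48 h, interpolate endpoints linearly. Abbreviation: GI50, concentration required for 50% inhibition of growth. The concentration for full growth arrest is given as TGI.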

Turning to `CCCCC(OC(=O)c1ccc(N)cc1)C(=O)Nc1nc(CC(=O)OCC)cs1` (configuration not stated), the GI50 in assay [1] was 56500 nM; in assay [2] it was above 100000 nM; in assay [3], 35000 nM; in assay [4] it was 42200 nM; in assay [5], 35800 nM; in assay [6] it was 33900 nM. Further, the GI50 was 28100 nM in [7], 42400 nM in assay [8], 23500 nM in assay [9] and 53600 nM in assay [10]. In addition, the TGI in [1], in [2], in assay [3], in assay [4], in assay [5] and in assay [6] was above 100000 nM in each case. The TGI in [7] is above 100000 nM; in [8], above 100000 nM; in [9], 82000 nM; in [10], above 100000 nM.
For `COc1ccc(CNCCCN2C(=O)c3ccc4c5c(ccc(c35)C2=O)C(=O)N(CCCNCc2ccc(OC)c(OC)c2OC)C4=O)c(OC)c1OC`, the GI50 is 171 nM in [1]; 108 nM in [2]; 92.5 nM in [3]; 508 nM in [4]; 121 nM in assay [5]; 80.4 nM in assay [6]. The GI50 in assay [7] is 125 nM; in assay [8], 109 nM; in [9] it was 88.8 nM; in assay [10] it was 333 nM. Further, the TGI in [1] is 729 nM; in assay [2] it was 250 nM; in assay [3], 177 nM; in [4], 1120 nM; in assay [5], 291 nM; in assay [6], 163 nM. For the same molecule, the TGI was determined as 398 nM in assay [7], 293 nM in [8], 230 nM in assay [9] and 1020 nM in assay [10].
On to `CCOC(=O)c1c2c(n3ccc(NC(=O)CCN4CCCCC4)cc13)C(=O)c1ncccc1C2=O`, for which the GI50 was 22.9 nM in [1]; 1380 nM in assay [2]; 1160 nM in assay [3]; 668 nM in assay [4]; 1420 nM in [5]; 15.8 nM in [6]. Moreover, the GI50 in assay [7] was 1790 nM; in assay [8] it was 1200 nM; in [9], 1140 nM; in [10], 124 nM. In addition, the TGI came out at 1830 nM in assay [1]; 3200 nM in assay [2]; 2470 nM in assay [3]; 2380 nM in [4]; 4040 nM in [5]; 1720 nM in assay [6]. Also, the TGI in assay [7] stood at 3770 nM; in assay [8], 2630 nM; in assay [9] it was 2640 nM; in assay [10] it was 2320 nM.
On to `CN[C@@H](Cc1cccc2ccccc12)C(=O)N[C@@H](CC(C)C)B(O)O`, for which the GI50 is 37.1 nM in assay [1]; 18.7 nM in assay [2]; 4.25 nM in assay [3]; 11.9 nM in assay [4]; 20.1 nM in assay [7]; 39.1 nM in assay [8]. For the same molecule, the values for the GI50 in assay [9] and in assay [10] were 15.8 nM and 37 nM, respectively. Further, the TGI was 129 nM and 36.8 nM in assay [1]; 51.8 nM and 20.4 nM in assay [2]; 14.7 nM in [3]; 27.1 nM in assay [4]; 46.6 nM in assay [5]; below 10.3 nM in assay [6]. Moreover, the TGI in assay [7] is 44.6 nM and < 14.5 nM; in assay [8], 154 nM and 31 nM; in [9], 37 nM and < 14.7 nM; in assay [10], 180 nM and 67.1 nM.
Turning to `C#CCOC(=O)/C=C/C(=O)Oc1ccc2c(C)cc(=O)oc2c1`, the GI50 in assay [1], in assay [2], in [3], in [4], in [5] and in [6] was above 100000 nM throughout. Besides, the GI50 in [7], in assay [8], in assay [9] and in assay [10] was above 100000 nM throughout. Moreover, the TGI in assay [1], in assay [2], in assay [3], in [4], in assay [5] and in [6] was above 100000 nM throughout. In addition, the TGI in assay [7], in [8], in [9] and in assay [10] was above 100000 nM each time.
Consider `FC(F)(F)c1cc(NC(=S)N2c3ccccc3-n3cccc3C2c2cccnc2)cc(C(F)(F)F)c1` (configuration not stated), for which the GI50 in [1] was 7230 nM; in [2] it was 22000 nM; in [3] it was 6570 nM; in assay [4], 15700 nM; in assay [5], 3960 nM; in assay [6] it was 3680 nM. Also, the GI50 was 8390 nM in assay [7], 3010 nM in [9] and 5310 nM in assay [10]. The TGI in assay [1] was found to be 21700 nM; in assay [2] it was 59200 nM; in assay [3], 22100 nM; in [4], 37100 nM; in assay [5], 20200 nM; in [6] it was 13700 nM. For the same molecule, the TGI in assay [7] was 31100 nM; in assay [8], 16700 nM; in assay [9], 9470 nM; in assay [10], 18700 nM.
On to `O=C(Nc1ccccc1Cl)c1ccc(NC2=C(Cl)C(=O)N(C3CCCCC3)C2=O)cc1`, for which the GI50 in assay [1] was 8370 nM; in [2], 49500 nM; in [3], 9610 nM; in assay [4], 17600 nM; in [5], 5560 nM; in assay [6], 6230 nM. Further, the GI50 in assay [7] is 13700 nM; in [8], 13600 nM; in assay [9] it was 9250 nM; in [10] it was 9640 nM. Also, the TGI in assay [1] was 29300 nM; in assay [2], 128000 nM; in assay [3] it was 44100 nM; in assay [4], 49600 nM; in [5] it was 20400 nM; in assay [6], 34700 nM. The TGI is 33300 nM in assay [7], 45500 nM in assay [8], 28400 nM in assay [9] and 30200 nM in assay [10].
Consider `Cc1ccc(-c2nc(/C=N/Nc3cc(C)nc4ccc(Br)cc34)c(C)o2)cc1`, for which the GI50 was 1870 nM in [1]; 1860 nM in assay [2]; 1720 nM in assay [3]; 1730 nM in assay [4]; 2320 nM in assay [5]; 1940 nM in [6]. Also, the GI50 was 1980 nM in [7], 1710 nM in assay [8], 1880 nM in assay [9] and 1860 nM in assay [10]. Further, the TGI in assay [1] was found to be 3550 nM; in assay [2] it was 3360 nM; in assay [3], 3120 nM; in assay [4], 3250 nM; in assay [5], 5130 nM; in assay [6] it was 4130 nM. The TGI in assay [7] was 3770 nM; in assay [8], 3300 nM; in assay [9] it was 3360 nM; in assay [10] it was 3670 nM.
`O=C(O)CN1C(=O)CN=C(c2ccccn2)c2cc(Cl)ccc21`: the TGI is above 100000 nM in assay [1]; above 100000 nM in assay [2]; above 100000 nM in [3]; above 100000 nM in [4]; 21700 nM in assay [5]; above 100000 nM in [6]. For the same molecule, the TGI in assay [7], in [8], in [9] and in assay [10] was above 100000 nM throughout.
Turning to `O=C1/C(=C/c2ccc(F)cc2)CN(C(=O)C(Cl)Cl)C/C1=C\c1ccc(F)cc1`, the GI50 in assay [1] was 407 nM; in assay [2], 323 nM; in [3] it was 212 nM; in assay [4], 257 nM; in [5], 309 nM; in assay [6], 1500 nM. In addition, the GI50 is 323 nM in assay [7], 250 nM in [8], 262 nM in assay [9] and 213 nM in assay [10]. Besides, the TGI in [1] was 1510 nM; in assay [2], 1100 nM; in assay [3], 486 nM; in assay [4], 666 nM; in [5] it was above 100000 nM; in [6] it was 3270 nM. Besides, the TGI was 1090 nM in [7], 818 nM in assay [8], 778 nM in assay [9] and 499 nM in [10].
For `O=[N+]([O-])c1ccc(N=Nc2c(Cl)cc(O)cc2Cl)cc1`, the GI50 was 2170 nM in assay [1]; 4220 nM in [2]; 943 nM in assay [3]; 1920 nM in assay [4]; 435 nM in assay [5]; 473 nM in [6]. The GI50 in assay [7] was 700 nM; in [8] it was 2720 nM; in assay [9], 462 nM; in assay [10], 2220 nM. Further, the TGI worked out at 5870 nM in assay [1]; 16500 nM in assay [2]; 3160 nM in assay [3]; 8550 nM in assay [4]; 2990 nM in assay [5]; 4090 nM in assay [6]. The TGI was determined as 4860 nM in [7], 15400 nM in assay [8], 2470 nM in [9] and 9360 nM in [10].

The record behind these values is PubChem BioAssay (NCI).
